From patent US20040087842A1, “Fluorescent probes for saccharrides” (priority 2002, published 2004)
Where two headings read alike, the source gives them in different places. One block for each compound: values may come before it.

Key:
[1] = Fluorescence titration curves against sugar (dissociation constant), D-galactose; format: binding
Protocol: (§1) Stilbene-4-boronic acid (STBA), 4′-cyanostilbene-4-boronic acid (CSTBA), 4′-methoxystilbene-4-boronic acid (MSTBA) and 4′-(dimethylamino)stilbene-4-boronic acid (DSTBA) were synthesized by the Wittig reaction between the para-substituted benzaldehydes and the para-boronic acid derivative of the benzyltriphenylphosphonium bromide. This latter was synthesized by the reaction of the p-bromomethylphenylboronic acid with triphenylphosphine in toluene. […] Absorption spectrawere recorded with a Cary 50 UV-Vis spectrophotometer from Varian. Emission spectra were recorded with a Varian Eclipse spectrofluorometer from Varian. In both cases, the measurements were taken at room temperature in a 1 cm quartz cuvette. For all measurements, the absorbances of the solutions were about 0.1 corresponding to a concentration range of 2-3×10^−6 M of the fluorophore. Fluorescence quantum yields were measured against p-quaterphenyl in cyclohexane (ΦF=0.89) for trans-stilbene (ST) and STBA, anthracene in cyclohexane (φF=0.36) for CSTBA and MSTBA and Quinine sulfate in 1N sulfuric acid (ΦF=0.577) for DSTBA.
(§2) where Iacid and Ibase are the intensity limits in the acid and basic region, respectively. Titration curves against sugar were fitted and dissociation constant (KD) values were obtained using the equation: [formula]
(§3) where Io and If are the initial (no sugar) and final (plateau) intensities of the titration curves. All solutions in water and buffer contained also 33.3% […] methanol to avoid any problem due to the aggregation.

[2] = Fluorescence titration curves against sugar (dissociation constant), D-fructose; format: binding
Protocol: as §1, §2, §3

[3] = Fluorescence titration curves against sugar (dissociation constant), D-glucose; format: binding
Protocol: as §1, §2
(§4) where Io and If are the initial (no sugar) and final (plateau) intensities of the titration curves. […]

[4] = Titration curves against pH (pKa of the boronic acid group) with and without sugar; format: physicochemical; conditions: for pKa: aqueous buffer solutions with methanol
Protocol: Titration curves against pH were measured in buffer solutions: acetate buffer for pH 4.0-5.5, phosphate buffer for pH 6.0-9.0 and carbonate buffer for pH 10,0-11.0. Titration curves were fitted and pKa (pKa=−log Ka) values were obtained using the equation: [formula]
as §2, §4

[5] = DSTBA, from reference 3; read-out: KD galactose; cited from earlier work
[6] = DSTBA, from reference 3; read-out: KD glucose; cited from earlier work
[7] = DSTBA, from reference 3; read-out: KD fructose; cited from earlier work
[8] = Emission intensity change of STBA after addition of sugars; conditions: phosphate buffer pH 8.0/methanol 2:1 (v/v), λex=310 nm
Description: A decrease of the fluorescence emission is observed after the addition of sugar. The overall decrease is relatively weak, about 15%. Since the same intensity change is observed by increasing the pH, this change is attributed to the formation of the anionic form of the boronic acid group. […] The decrease of this pKa for the complex with sugar is also a general observation for this chelator group. […] At pH 8.0, STBA is present mostly in its neutral form. After the addition of sugar, the complex exists under the anionic form due to its lower pKa. This change from the neutral to the anionic form is at the origin of the intensity changes observed for STBA and the other complexes presented in this study. […]
Stilbene-4-boronic acid (STBA), 4′-cyanostilbene-4-boronic acid (CSTBA), 4′-methoxystilbene-4-boronic acid (MSTBA) and 4′-(dimethylamino)stilbene-4-boronic acid (DSTBA) were synthesized by the Wittig reaction between the para-substituted benzaldehydes and the para-boronic acid derivative of the benzyltriphenylphosphonium bromide. […] Absorption spectrawere recorded with a Cary 50 UV-Vis spectrophotometer from Varian. Emission spectra were recorded with a Varian Eclipse spectrofluorometer from Varian. […] For all measurements, the absorbances of the solutions were about 0.1 corresponding to a concentration range of 2-3×10^−6 M of the fluorophore. […]

[9] = Yoon et al., cited from earlier work
[10] = cited from earlier work; for decrease of emission intensity after addition of glucose: pH 7.4, literature
[11] = cited from earlier work
[12] = Fluorescence titration curves against sugar (dissociation constant), D-fructose; format: binding; conditions: compounds 4 and 5; phosphate buffer pH 8.0/methanol 1:2 (v/v)
[13] = Solubility observation during titrations; format: physicochemical; conditions: methanol/water mixture
Description: (§5) As discussed in the literature, the change is the intensity is attributed to the removal of the PET quenching due to the interaction between the boron and nitrogen atoms following the binding with glucose. In attempt to see the possible interference from macrobiosystems, titration curves have also been measured in presence of BSA and two detergents, one with a […] charged head group (HDTBr) and the other with a […] charged head group (SDS). BSA has a little effect on the titration curve of 7 and no effect for compound 8. The effect of BSA one compound 7 could be the result of an interaction between these two compounds. But, as the measurements are taken in a mixture of methanol and water, aggregation could not be neglect. […] To obtain a reproducible titration curve, vigorous stirring and time must be applied. In the presence of micelles, a complete inhibition of the intensity change is observed. […] For compound, the dissociation constant is in the millimolar range which is characteristic with the boronic acid group. For compound 8, this dissociation constant goes down to submillimolar range. This is due to the ability of both boronic acid group present on compound 8 to bind one molecule of glucose.

[14] = Stability and dissociation constants of 7 and 8 for D-glucose from steady-state and frequency-domain fluorescence; format: binding; conditions: 1:1 complex with D-glucose, methanol/phosphate buffer pH 7.7 (1:3)
Description: as §5
Titration curves obtain with the mean lifetime and with the phase angle and modulation are shown in FIGS. 24 and 25 respectively for both compounds. […] This is due to the fact that the short lifetime component becomes less important and gradually the decay become more monoexponential with the addition of glucose. For compound 8, the combination of larger mean lifetime change and decrease of the short lifetime component result in a larger change in the phase angle and modulation with the presence of glucose. The apparent association constants obtained with the mean lifetime, phase angle and modulation show a decrease of an order in comparison with the KD obtained with the steady-state intensity change. […] This is due to the more important contribution of the complex (probe with analyte) on the lifetime because of the higher quantum yield and longer lifetime of the latter.
Steady-state fluorescence measurements were performed in 1 cm quartz cuvette in an ISS spectrofluorometer.
Frequency-domain (FD) measurements were performed using instrumentation described previously (65). The Domain (TD measurements can also be applied to the fluorescent compounds and methods of the present invention, as readily recognized by those of ordinary skill in the art. For Example 4, an amplitude modulated UV-LED was use as light source given and peak intensity centered around 370 nm. Emission was observed through a 415 nm cut-off and a 420 nm interference filter. The FD or TD intensity decay data were analyzed by nonlinear least squares in terms of the multiexponential model: [formula]
The values of (τ) are thought to be proportional to the quantum yield of the sample. […] Stability and association constants are determined according to the method described in the literature.

[15] = literature value; read-out: KD D-galactose; cited from earlier work
[16] = stilbenes, pH 8.0, 33.3% methanol, read-out: KD D-galactose
[17] = stilbenes, pH 8.0, 33.3% methanol, read-out: KD D-fructose
[18] = stilbenes, pH 8.0, 33.3% methanol, read-out: KD D-glucose
[19] = stilbenes, 33.3% methanol, 50 mM D-fructose, read-out: pKa +D-fructose (50 mM)
[20] = stilbenes, 33.3% methanol, 50 mM D-glucose, read-out: pKa +D-glucose (50 mM)
[21] = stilbenes, solution contained 33.3% methanol, no sugar, read-out: pKa Alone
[22] = compounds 4 and 5, phosphate buffer pH 8.0/methanol 1:2 (v/v), read-out: KD galactose
[23] = compounds 4 and 5, phosphate buffer pH 8.0/methanol 1:2 (v/v), read-out: KD glucose
[24] = compounds 4 and 5, 66.6% methanol, 50 mM fructose, read-out: pKa fructose (50 mM)
[25] = compounds 4 and 5, 66.6% methanol, 170 mM glucose, read-out: pKa glucose (170 mM)
[26] = compounds 4 and 5, buffer with 66.6% (v/v) methanol, read-out: pKa no sugar
[27] = compound 6, pH 7.0, phosphate buffer/methanol 2:1
[28] = 30 MHz, read-out: KD, Modulation
[29] = 30 MHz, read-out: KD, Phase Angle
[30] = read-out: KD, Steady State Intensity

- Kd [1, 16]: 12.5 mM
- Kd ([2]; pH 7.0, read-out: dissociation constant for D-fructose): 3.22 mM
- Kd ([2]; pH 7.5, read-out: dissociation constant for D-fructose): 1.19 mM
- Kd [2, 17]: 0.65 mM
- Kd [3, 18]: 18.3 mM
- pKa [4, 19]: 5.84
- pKa [4, 20]: 7.3
- pKa [4, 21]: 8.17
Compound: N#Cc1ccc(/C=C/c2ccc(B(O)O)cc2)cc1 [CSTBA, 4′-cyanostilbene-4-boronic acid]

- Kd [1, 16]: 49 mM
- Kd [2, 17]: 2.5 mM
- Kd [3, 18]: 98 mM
- pKa [4, 19]: 6.61
- pKa [4, 20]: 8.34
- pKa [4, 21]: 9.14
Compound: CN(C)c1ccc(/C=C/c2ccc(B(O)O)cc2)cc1 [DSTBA, 4′-(dimethylamino)stilbene-4-boronic acid]
- Kd [5]: 49 mM
- Kd [6]: 98 mM
- Kd [7]: 2.5 mM

- Kd [1, 16]: 26 mM
- Kd [2, 17]: 1 mM
- Kd [3, 18]: 43 mM
- pKa [4, 19]: 6.36
- pKa [4, 20]: 7.88
- pKa [4, 21]: 8.58
Compound: COc1ccc(/C=C/c2ccc(B(O)O)cc2)cc1 [MSTBA, 4′-methoxystilbene-4-boronic acid]

- Kd [1, 22]: 5.9 ± 0.6 mM
- Kd [3, 23]: 17 ± 2 mM
- Kd [12]: 1.12 ± 0.05 mM
- pKa [4, 24]: 6.19 ± 0.04
- pKa [4, 25]: 6.97 ± 0.02
- pKa [4, 26]: 8.9
Compound: CN(C)c1ccc(/C=C/C=C/c2ccc(B(O)O)cc2)cc1 [compound 4, 1-(p-Dimethylaminophenyl)-4-(p-boronophenyl)-buta-1,3-diene]

- Kd [1, 22]: 5.4 ± 0.4 mM
- Kd [3, 23]: 15 ± 1 mM
- Kd [12]: 0.84 ± 0.03 mM
- pKa [4, 24]: 6.1 ± 0.05
- pKa [4, 25]: 6.86 ± 0.02
- pKa [4, 26]: 8.75
Compound: CN(C)c1ccc(/C=C/C=C/C=C/c2ccc(B(O)O)cc2)cc1 [compound 5, 1-(p-dimethylaminophenyl)-6-(p-boronophenyl)-hexa-1,3,5-triene]

Further lines, the compound ahead of its results:

Compound: OB(O)c1ccc(/C=C/c2ccccc2)cc1 [STBA, stilbene-4-boronic acid]
- Kd [1, 16]: 6 mM
- Kd [2, 17]: 3.4 mM
- Kd [3, 18]: 11 mM
- overall decrease of the fluorescence emission after addition of sugar [8]: about 15%
- pKa [4, 19]: 6.4
- pKa [4, 20]: 7.63
- pKa [4, 21]: 8.86

Compound: OB(O)c1ccc2cc3ccccc3cc2c1 [anthrylboronic acid, anthryl-2-boronic acid]
- pKa of complex with fructose ([9]; saturated fructose solution): 5.9
- pKa ([9]; uncomplexed): 8.8
- decrease of emission intensity after addition of glucose [10]: about 10%
- decrease of emission intensity after addition of glucose ([10]; listed as anthryl-2-boronic acid): 10%
- decrease of emission intensity after addition of fructose ([11]; pH 7.4, literature): 30%

Compound: CN(C)c1ccc(-c2cnc(-c3ccc(B(O)O)cc3)o2)cc1 [compound 6, 5-(4′-Dimethylaminophenyl)-2-(4″-boronophenyl)oxazol]
- increase of the emission intensity in presence of galactose [1, 27]: about 3 fold
- Kd ([1]; compound 6, phosphate buffer/methanol (2:1 v/v) at pH 7.0, read-out: Dissociation constant (KD) for galactose): 14 ± 1 mM
- increase of the emission intensity in presence of fructose [2, 27]: about 5 fold
- Kd ([2]; compound 6, phosphate buffer/methanol (2:1 v/v) at pH 7.0, read-out: Dissociation constant (KD) for fructose): 1.9 ± 0.1 mM
- increase of the emission intensity in presence of glucose [3, 27]: about 3 fold
- Kd ([3]; compound 6, phosphate buffer/methanol (2:1 v/v) at pH 7.0, read-out: Dissociation constant (KD) for glucose): 37 ± 3 mM
- pKa in presence of fructose ([4]; compound 6): 5.6
- pKa in presence of glucose ([4]; compound 6): 6.5
- pKa in absence of sugar ([4]; compound 6, λex=350 nm): 7.8

Compound: CN(Cc1ccccc1B(O)O)Cc1c2ccccc2cc2ccccc12 [compound 7, 9-[[N-Methyl-N-(o-boronobenzyl)amino]methyl]anthracene]
- solubility [13]: relatively low solubility
- Log KS, Mean Lifetime [14]: 2.5 (0.994:4)
- Log KS, Steady State Intensity [14]: 1.7 (0.993:7)
- Log KS, Modulation ([14]; 30 MHz): 2.5 (0.999:6)
- Log KS, Phase Angle ([14]; 30 MHz): 2.2 (0.993:5)
- Kd [14, 28]: 3.4 mM
- Kd [14, 29]: 6.1 mM
- Kd ([14]; read-out: KD, Mean Lifetime): 3.2 mM
- Kd [14, 30]: 19.3 mM

Compound: CN(Cc1ccccc1B(O)O)Cc1c2ccccc2c(CN(C)Cc2ccccc2B(O)O)c2ccccc12 [compound 8, 9,10-Bis[[N-methyl-N-(o-boronobenzyl)amino]methyl]anthracene]
- solubility [13]: relatively low solubility
- Log KS, Mean Lifetime [14]: 4.4 (0.992:11)
- Log KS, Steady State Intensity [14]: 3.1 (0.998:12)
- Log KS, Modulation ([14]; 30 MHz): 4.1 (0.995:7)
- Log KS, Phase Angle ([14]; 30 MHz): 4.5 (0.996:10)
- Kd [14, 28]: 0.079 mM
- Kd [14, 29]: 0.032 mM
- Kd ([14]; read-out: KD, Mean Lifetime): 0.04 mM
- Kd [14, 30]: 0.79 mM

Compound: OB(O)c1ccccc1 [phenylboronic acid]
- Kd [15]: 3.6 mM
- Kd ([10]; literature value, read-out: KD D-glucose): 9.1 mM
- Kd ([11]; literature value, read-out: KD D-fructose): 0.2 mM
